# Experimental data as given in patent US20170037030A1, “AUTOTAXIN INHIBITORS” (NOVARTIS AG, priority 2014, published 2017).
# Target: T1, Recombinant human ATX (Homo sapiens, UniProt Q13822)
# T1 construct: made in house; host or cells: human embryonic kidney (HEK) cells
# Experiment: ATX inhibition assay (released choline, Amplex Red fluorescence)
# Format: biochemical
# Conditions: ATX 10 nM, LPC 18:1 10 μM, pre-incubated with ATX at 37° C. for 20 minutes; mean of n≧2
# Experimental: Reagents—LPC (oleoyl (18:1)) was purchased from Avert Polar Lipids (Alabaster, Ala.) and solubilized in methanol to 20 mM. Amplex Red was obtained from Invitrogen Life Technologies (Paisley, UK) and dissolved in DMSO to 10 mM. Choline oxidase and horseradish peroxidase (HRP) were obtained from Sigma Aldrich (Dorset, UK) and dissolved in HBSS to 20 U/ml and 200 U/ml respectively. All reagents were stored at −20° C. in single use aliquots. All experimental measurements were performed in assay buffer made up immediately prior to use (HBSS, 0.01% BSA essentially fatty acid free). […]
# Method—All experimental measurements were performed in black 384 well polystyrene (low volume, round bottom, Corning (3676)) plates. PerkinElmer EnVision (Fluorescence Intensity/Absorbance Monochromator) or Tecan Infinite 200 PRO series plate reader was used to detect change in fluorescent intensity.
# Assessing ATX inhibition—ATX activity was determined by measurement of released choline in reactions containing ATX (10 nM), choline oxidase (0.1 U/ml), HRP (100 U/ml), amplex red (50 μM) and LPC 18:1 (10 μM). […] The liberated choline was measured from changes in fluorescence intensity (Aex 530 nm, Aem 590 nm) of the product resurofin at 37° C. every 2 minutes over a 40-minute period. ATX activity was measured as a slope of the linear portion of the progress curve, typically between 14 to 24 minutes. […]
row,IC50,Structure (SMILES)
1,70 nM,"O=C(CCC(=O)c1c[nH]nn1)NC1CCN(C(=O)OCc2cc(Cl)cc(Cl)c2)CC1 [Example 1, 3,5-dichlorobenzyl 4-(4-oxo-4-(1H-1,2,3-triazol-4-yl)butanamido)piperidine-1-carboxylate]"
2,10 nM,"O=C(CCC(O)c1c[nH]nn1)NC1CCN(C(=O)OCc2cc(Cl)cc(Cl)c2)CC1 (centres unmarked) [Example 2, 3,5-dichlorobenzyl 4-(4-hydroxy-4-(1H-1,2,3-triazol-4-yl)butanamido)piperidine-1-carboxylate]"
